US11524950B2, “Treatment of immune-related and inflammatory diseases” (Celgene Corporation, priority 2012, dated 2022)
Read-outs that look alike come from different tables or passages of the source.

Key:
Tsk-1 mouse = assay: Tight skin-1 (Tsk-1) mouse model: hypodermal thickness and hydroxyproline; type: in vivo; details: 30 mg/kg
Text: First, the inhibitory effects of the compound on fibrosis in the Tsk-1 tight skin mouse model were also investigated.

BLIMP-1, XBP-1, and IgJ = assay: Plasmablast lineage factor gene expression (qRT-PCR), SLE patient PBMC; type: cell-based, human; details: 20 nM, n=3
IgM = IgM production in normal PBMC differentiation cultures (ELISA); details: Homo sapiens, read-out: IgM IC50 (nM) Normal (n = 3)
Experimental: (§2) Step 1—B cell Activation—day 0 through day 4: Prepare fresh B cell cocktail by adding 50 μg/mL of human transferrin to B cell media. (Iscoves+10% PFBS, 1% P/S, and 5 μg/mL human insulin). […] Five milliliters (1×10^5/ml) of CD19+ B cell were added to each well of a 6 well flat-bottom plate (final cell count=5×10^5/well). Five L (lx)±compound/DMSO was added to each test well (0.1% final DMSO) and incubated at 37° C. for 4 days.
(§3) Step 2—Plasmablast Generation—day 4 through day 7: Cells were harvested and counted on the cell counter; an aliquot was removed for flow analysis, the remaining cells were washed with PBS. Prepare fresh B cell cocktail by adding 1 μg/ml of human transferrin to B cell media. […] Add B cell differentiation cocktail (final concentration): recombinant human IL-2 (20 U/mL), IL-10 (50 ng/mL), IL-15 (10 ng/mL), IL-6 (50 ng/mL) to cells. Add fresh B cell cocktail and transfer cells back to the original wells and bring volume back to 5 mL. Five L (1×)±compound/DMSO was added to each test well (0.1% final DMSO) and incubated at 37° C. for 4 days.
(§4) Supernatants (from section 8.2.3) were harvested and analyzed by ELISA for IgG and IgM production (ZeptoMetrix Corp. Buffalo, N.Y.).
(§5) The data was graphed using GraphPad Prism 5.0 software.
IgM and IgG were measured by ELISA.

IgJ = assay: Ig J chain intracellular staining in B cell differentiation culture; type: cell-based, human
Experimental: (§1) Immunophenotyping For Flow Cytometric Analysis: Cells were stained using multicolor direct immunofluorescence stain for flow cytometric analysis. Surface staining was performed before cell fixation and permeabilization. Cells (50 μl; 1×10^6 cells/ml in washing buffer, 2% FBS with 0.1% NaN3 in PBS) were used for each staining. The cells were stained with isotype control mAb ([…]) and multicolor FITC-conjugated anti-CD20 mAb and PE-conjugated anti-CD38 mAb, or PerCP-Cy5.5 conjugated anti-CD44 mAb, PE-conjugated anti-CD83 mAb were used for day 4 activated B cells (CD20+CD38-cells), and day 4 PBs and day 7 PBs (CD20-CD38+), and other staining, analyzed by flow cytometry as per manufacturer's instructions. The intracellular staining of transcription factor proteins (BCL-6, IRF-4, BLIMP-1, PAX-5 and XBP-1) and IgJ was performed according to the manufacturer's recommendations. Flow cytometric analysis was performed with a FACSCanto using FACSDiva 6 (BD Biosciences). For data analysis, Flowjo (Tree Star) software was used.
High level IgJ chain expression in rheumatoid arthritis (RA) patients predicts lack of response to rituximab.

[1] = system: IRF4, BLIMP1, XBP1, PAX5, IgJ; assay: B and plasma cell transcription factor gene expression (RT-PCR), normal B cell differentiation culture; type: cell-based, human
Experimental: Differentiated B cells (see section 8.2.3) were harvested for total ribonucleic acid (RNA) preparation with a Qiacube RNA extraction instrument (Qiagen, Valencia, Calif.) using QIAGEN RNeasy mini spin-column kits. Purified RNA was reverse transcribed into cDNA with thermal cycler [MJ Research; Inc., St. Bruno, Quebec, Canada) using a reverse-transcriptase kit (Applied Biosystems). The gene expression assay was carried out using 7500 RT-PCR system (Applied Biosystems) in triplicate. A glyceraldehyde 3-phosphate dehydrogenase gene expression assay control was run for each sample and used as a normalization control. For each gene, samples within each experiment were normalized to 0.1% DMSO treatment only for that particular time point.

NZBWF1/J mouse = NZBWF1/J mouse model of systemic lupus erythematosus; type: in vivo; details: 30 mg/kg; week 4
CD44 = CD44 expression in B cell differentiation culture (flow cytometry); type: cell-based, human; details: Day 7; for percentage of CD20high/CD44high cells: DMSO 22.2%
Experimental: as §1
Using the same B cells in vitro differentiation system, the activity of the test compound on CD44 and CD83 expression in B cell differentiation was further investigated. Multicolor FITC-conjugated anti-CD20 mAb, PerCP Cy5.5-conjugated anti-CD44 mAb and PE-conjugated anti-CD83 mAb are used for day 4 and day 7 cells. The effect of the test compound was evaluated from 3 separate experiments representative of 3 donors.

IgG = IgG production in normal B cell / PBMC differentiation cultures (ELISA); details: Homo sapiens
Experimental: as §2, §3, §4, §5
IgM and IgG were measured by ELISA.

O=C1CC[C@H](N2Cc3c(OCc4ccc(CN5CCOCC5)cc4)cccc3C2=O)C(=O)N1 [Test compound, (S)-3-[4-(4-morphlin-4-ylmethylbenzyloxy)-1-oxo-1,3-dihydro-isoindo-2-yl]piperidine-2,6-dione]
reduction of collagen content of the skin (hydroxyproline levels) (Tsk-1 mouse): 38%
reduction of hypodermal thickening (Tsk-1 mouse; p≤0.001): 45%
BLIMP-1 gene expression (BLIMP-1, XBP-1, and IgJ): 52.8 % of control
IgJ gene expression (BLIMP-1, XBP-1, and IgJ): 13.6 % of control
XBP-1 gene expression (BLIMP-1, XBP-1, and IgJ): 49.2 % of control
IC50 (IgM): 0.35 nM
MFI of IgJ within the positive cells (IgJ): decreased
number of IgJ-positive cells (IgJ; Day 4, 20 nM, DMSO 13.1%±1.5%): 8.4%
number of IgJ-positive cells (IgJ; Day 4, 200 nM, DMSO 13.1%±1.5%): 5.4%
Ig J chain expression (IgJ; Day 4 B cell differentiation cultures, three donors): dose-dependently and significantly reduced
number of IgJ-positive cells (IgJ; Day 7, 20 nM, DMSO 14.4%±4.3): 13.2%
number of IgJ-positive cells (IgJ; Day 7, 200 nM, DMSO 14.4%±4.3): 7.2%
B cell transcription factor PAX5 [1]: enhanced
expression of plasma cell transcription factor BLIMP1 [1]: dose-dependently inhibited
expression of plasma cell transcription factor RF4 [1]: dose-dependently inhibited
expression of plasma cell transcription factor XBP1 [1]: dose-dependently inhibited
BLIMP-1 gene expression ([1]; day 7, 20 nM, qRT-PCR): 14.3 % of control
IRF-4 gene expression ([1]; day 7, 20 nM, qRT-PCR): 20.5 % of control
IgJ gene expression ([1]; day 7, 20 nM, qRT-PCR): 31.5 % of control
XBP-1 gene expression ([1]; day 7, 20 nM, qRT-PCR): 15.1 % of control
anti-double stranded DNA autoantibody level, increase (NZBWF1/J mouse): 86%
peripheral blood B cells, decrease (NZBWF1/J mouse): 25%
splenic B cells (NZBWF1/J mouse): no change
CD44 mean fluorescence intensity (MFI) (CD44): dose-dependently and significantly decreased
percentage of CD20high/CD44high cells (CD44; 2 nM): 18.4%
percentage of CD20high/CD44high cells (CD44; 20 nM): 10.1%
percentage of CD20high/CD44high cells (CD44; 200 nM): 6.6%
IC50 (IgG; B-cell, read-out: secreted IgG production IC50): 1.8 nM
IC50 (IgG; PBMC, read-out: IgG IC50 (nM) Normal (n = 3)): 2.1 nM
IC50 (IgG; read-out: IgG production IC50): 1.8 nM
